Reference: BindingDB's records for doi:10.1124/jpet.105.086363 (Wyeth, 2005)

Tests used:
D(3) dopamine receptor = D(3) dopamine receptor (Homo sapiens, UniProt P35462)
[1] = target: T1, Alpha-1A adrenergic receptor (Rattus norvegicus, UniProt P43140)
T1 sequence (P43140 whole entry): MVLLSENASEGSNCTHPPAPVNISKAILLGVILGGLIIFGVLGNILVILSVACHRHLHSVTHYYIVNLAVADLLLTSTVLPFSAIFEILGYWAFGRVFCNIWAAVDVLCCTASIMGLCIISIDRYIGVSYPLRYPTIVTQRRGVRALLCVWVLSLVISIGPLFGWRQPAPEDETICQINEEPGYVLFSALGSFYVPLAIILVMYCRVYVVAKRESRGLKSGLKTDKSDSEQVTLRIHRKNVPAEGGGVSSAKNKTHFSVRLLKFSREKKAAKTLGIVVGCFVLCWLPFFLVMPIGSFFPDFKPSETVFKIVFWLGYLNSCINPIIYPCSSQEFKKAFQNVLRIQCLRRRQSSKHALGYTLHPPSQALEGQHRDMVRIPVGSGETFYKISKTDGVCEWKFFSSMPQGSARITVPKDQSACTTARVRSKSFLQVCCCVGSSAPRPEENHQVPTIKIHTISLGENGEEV

[2] = target: T2, 5-hydroxytryptamine receptor 1A (Homo sapiens, UniProt P08908)
T2 sequence (P08908 whole entry): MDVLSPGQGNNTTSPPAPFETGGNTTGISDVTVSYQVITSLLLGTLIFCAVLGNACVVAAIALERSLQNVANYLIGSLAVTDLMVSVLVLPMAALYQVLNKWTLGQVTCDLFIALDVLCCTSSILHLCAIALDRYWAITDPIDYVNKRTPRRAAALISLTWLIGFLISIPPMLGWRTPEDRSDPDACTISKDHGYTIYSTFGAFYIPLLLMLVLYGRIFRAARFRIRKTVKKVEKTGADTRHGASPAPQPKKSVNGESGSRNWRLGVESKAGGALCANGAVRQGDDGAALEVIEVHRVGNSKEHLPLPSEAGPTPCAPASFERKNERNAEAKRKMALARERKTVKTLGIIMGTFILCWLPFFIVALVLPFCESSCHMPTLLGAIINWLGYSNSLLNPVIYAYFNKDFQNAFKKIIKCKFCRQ

D(2) dopamine receptor = D(2) dopamine receptor (Homo sapiens, UniProt P14416)
D(4) dopamine receptor = target: T3, D(4) dopamine receptor (Homo sapiens, UniProt P21917)
T3 sequence (P21917 whole entry): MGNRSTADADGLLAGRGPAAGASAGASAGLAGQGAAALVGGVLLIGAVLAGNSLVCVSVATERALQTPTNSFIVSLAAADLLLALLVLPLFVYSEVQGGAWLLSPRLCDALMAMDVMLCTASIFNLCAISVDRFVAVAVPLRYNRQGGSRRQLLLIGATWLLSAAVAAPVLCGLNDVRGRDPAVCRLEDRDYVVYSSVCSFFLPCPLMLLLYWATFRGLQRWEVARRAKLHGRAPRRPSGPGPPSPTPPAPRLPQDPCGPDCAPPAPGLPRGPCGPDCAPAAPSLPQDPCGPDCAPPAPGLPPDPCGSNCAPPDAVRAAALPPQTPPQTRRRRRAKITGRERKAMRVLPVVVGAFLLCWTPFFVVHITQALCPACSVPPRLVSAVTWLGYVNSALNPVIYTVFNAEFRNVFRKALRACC

Sequence of D(2) dopamine receptor (P14416 whole entry): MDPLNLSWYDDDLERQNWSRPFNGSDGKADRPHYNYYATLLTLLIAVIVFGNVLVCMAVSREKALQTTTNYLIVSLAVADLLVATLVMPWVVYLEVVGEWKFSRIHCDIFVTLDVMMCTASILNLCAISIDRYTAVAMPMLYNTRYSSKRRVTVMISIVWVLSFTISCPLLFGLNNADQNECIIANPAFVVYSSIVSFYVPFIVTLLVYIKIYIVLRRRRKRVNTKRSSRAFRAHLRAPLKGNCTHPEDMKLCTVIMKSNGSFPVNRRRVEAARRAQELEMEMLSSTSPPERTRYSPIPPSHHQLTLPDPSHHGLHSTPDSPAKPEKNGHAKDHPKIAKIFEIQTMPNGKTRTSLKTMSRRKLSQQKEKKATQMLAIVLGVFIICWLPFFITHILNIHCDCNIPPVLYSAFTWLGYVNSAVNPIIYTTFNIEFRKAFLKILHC
Sequence of D(3) dopamine receptor (P35462 as listed by the source): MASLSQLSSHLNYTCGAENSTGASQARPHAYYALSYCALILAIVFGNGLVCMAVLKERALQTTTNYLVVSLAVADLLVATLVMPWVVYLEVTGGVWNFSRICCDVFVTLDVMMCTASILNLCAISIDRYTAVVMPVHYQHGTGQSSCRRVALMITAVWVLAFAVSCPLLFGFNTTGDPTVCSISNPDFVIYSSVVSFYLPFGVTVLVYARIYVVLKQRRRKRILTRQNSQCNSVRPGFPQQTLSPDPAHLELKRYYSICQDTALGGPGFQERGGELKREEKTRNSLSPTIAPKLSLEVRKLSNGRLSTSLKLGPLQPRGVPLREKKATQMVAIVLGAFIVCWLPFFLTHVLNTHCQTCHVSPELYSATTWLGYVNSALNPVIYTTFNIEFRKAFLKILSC

- Ki (D(3) dopamine receptor): 320 nM
- Ki [1]: 248 nM
- Ki [2]: 4.5 nM
- Ki (D(2) dopamine receptor): 1550 nM
- Ki (D(4) dopamine receptor): 98 nM
SMILES: C[C@H](CN(C(=O)c1ccc(C#N)cc1)c1ccccn1)N1CCN(c2cccc3c2OCCO3)CC1
